Data reported in patent publication US20090239846A1, “Novel Compounds” (Glaxo Group Limited, priority 2005, published 2009).
“Also recorded” adds a separate entry of the source. Structures can show the parent of a compound that is named as a salt.

System: influx of neutrophils to the lung in LPS-challenged rats
Experiment: Rat LPS neutrophilia model
Format: in vivo
Settings: LPS aerosol, lavage 4 hours later, in at least one of the range of conditions tested, significance p<0.05
Procedure: The effect of compounds on the influx of neutrophils to the lung in LPS-challenged rats is evaluated as follows. The test compound is suspended in one of the following solutions: 0.5% tween 80/PBS, 0.5% tween 80/saline, 10% EtOH/saline (with pH adjusted to 2.0, or 8.0 with HCl, or unadjusted), Saline (pH 2.0, 6.5 or 8.0, 0.5% Tragacanth, 1% DMSO/20% Encapsin/Saline, or acidified 5% Tragacanth. The suspension process may be aided by the use of a glass homogenizer. For intratracheal administration, the animals are anesthetized with inhaled isoflurane and placed in a supine position, the trachea is intubated with a steel gavage needle (1.5 inch, 22 gauge, small ball) or a Penn-Century Microsprayer Aerosolizer (model IA-LB) and 200 ul of dosing solution is delivered. The animals are visually monitored during the recovery process, which typically occurs within two minutes.
Rats treated with compound or vehicle (15 min-24 hours pretreatment) are exposed to an LPS aerosol (100 ug/ml) for 15 min. Four hours later the rats are euthanized with pentobarbital (100 mg/kg, i.p.) and the airways are lavaged with 5 washes of 5 ml of phosphate buffered saline. The harvested cells are stained (Diffquick) and counted to determine total and differential cell data. In a typical study, macrophages represent 40-70% of the total cells, and polymorphonuclear cells 30-60% of the total cells. Inhibition of neutrophil levels relative to no compound controls is calculated based on the differential counts.
The assay has varying conditions, such as concentration, pretreat time, form of the compound (crystalline, amorphous, salts, micronised), and a wet or dry application of the compound.
The data is obtained as % inhibition using a particular concentration and pretreat time.

Row | Structure (SMILES) | inhibition of neutrophilia
1 | Cc1c(F)cc(C(=O)Nc2ccccc2)cc1-c1nc(NCCN(C)C)nc2c1CNC(=O)N2c1c(F)cccc1F [Example 112, 3-(8-(2,6-difluorophenyl)-2-{[2-(dimethylamino)ethyl]amino}-7-oxo-5,6,7,8-tetrahydropyrimido[4,5-d]pyrimidin-4-yl)-5-fluoro-4-methyl-N-phenylbenzamide] | statistically significant inhibition of neutrophilia
2 | Cc1ccc(C(=O)Nc2nccs2)cc1-c1nc(N(C)CCCN(C)C)nc2c1CNC(=O)N2c1c(F)cccc1F [Example 124, 3-{8-(2,6-difluorophenyl)-2-[[3-(dimethylamino)propyl](methyl)amino]-7-oxo-5,6,7,8-tetrahydropyrimido[4,5-d]pyrimidin-4-yl}-4-methyl-N-1,3-thiazol-2-ylbenzamide] | statistically nonsignificant inhibition of neutrophilia
3 | Cc1ccc(C(=O)Nc2nccs2)cc1-c1nc(NC[C@H](C)O)nc2c1CNC(=O)N2c1c(F)cccc1F [Example 134, 3-(8-(2,6-difluorophenyl)-2-{[(2S)-2-hydroxypropyl]amino}-7-oxo-5,6,7,8-tetrahydropyrimido[4,5-d]pyrimidin-4-yl)-4-methyl-N-1,3-thiazol-2-ylbenzamide] | statistically nonsignificant inhibition of neutrophilia
4 | Cc1ccc(C(=O)Nc2ccc(F)c(F)c2)cc1-c1nc(NCCN(C)C)nc2c1CNC(=O)N2c1c(F)cccc1F [Example 138, N-(3,4-difluorophenyl)-3-(8-(2,6-difluorophenyl)-2-{[2-(dimethylamino)-ethyl]amino}-7-oxo-5,6,7,8-tetrahydropyrimido[4,5-d]pyrimidin-4-yl)-4-methylbenzamide] | statistically significant inhibition of neutrophilia
5 | Cc1ccc(C(=O)Nc2ccc(F)cc2)cc1-c1nc(N(C)CCCN(C)C)nc2c1CNC(=O)N2c1c(F)cccc1F [Example 9] | statistically nonsignificant inhibition of neutrophilia
6 | Cc1ccc(C(=O)NC(C)C)cc1-c1nc(N(C)CCN(C)C)nc2c1CNC(=O)N2c1c(F)cccc1F [Example 36, 3-{8-(2,6-difluorophenyl)-2-[[2-(dimethylamino)ethyl](methyl)amino]-7-oxo-5,6,7,8-tetrahydropyrimido[4,5-d]pyrimidin-4-yl}-4-methyl-N-(1-methylethyl)benzamide] | statistically significant inhibition of neutrophilia
7 | Cc1ccc(C(=O)NC(C)C)cc1-c1nc(NCCCN(C)C)nc2c1CNC(=O)N2c1c(F)cccc1F [Example 40, 3-(8-(2,6-difluorophenyl)-2-{[3-(dimethylamino)propyl]amino}-7-oxo-5,6,7,8-tetrahydropyrimido[4,5-d]pyrimidin-4-yl)-4-methyl-N-(1-methylethyl)benzamide] | statistically significant inhibition of neutrophilia
8 | CCc1ccc(C(=O)Nc2nccs2)cc1-c1nc(NCCN(C)C)nc2c1CNC(=O)N2c1c(F)cccc1F [Example 144, 3-(8-(2,6-difluorophenyl)-2-{[2-(dimethylamino)ethyl]amino}-7-oxo-5,6,7,8-tetrahydropyrimido[4,5-d]pyrimidin-4-yl)-4-ethyl-N-1,3-thiazol-2-ylbenzamide trifluoroacetate] | statistically significant inhibition of neutrophilia
9 | Cc1ccc(C(=O)NC(C)C)cc1-c1nc(NCCN(C)C)nc2c1CNC(=O)N2c1c(F)cccc1F [Example 37, 3-(8-(2,6-difluorophenyl)-2-{[2-(dimethylamino)ethyl]amino}-7-oxo-5,6,7,8-tetrahydropyrimido[4,5-d]pyrimidin-4-yl)-4-methyl-N-(1-methylethyl)benzamide] | statistically nonsignificant inhibition of neutrophilia
10 | Cc1ccc(C(=O)Nc2ccc(F)cc2)cc1-c1nc(NCCCN(C)C)nc2c1CNC(=O)N2c1c(F)cccc1F [Example 42, 3-(8-(2,6-difluorophenyl)-2-{[3-(dimethylamino)propyl]amino}-7-oxo-5,6,7,8-tetrahydropyrimido[4,5-d]pyrimidin-4-yl)-N-(4-fluorophenyl)-4-methylbenzamide] | statistically significant inhibition of neutrophilia
11 | CN(C)CCNc1nc(-c2cccc(C(=O)Nc3ccccc3)c2)c2c(n1)N(c1c(F)cccc1F)C(=O)NC2 [Example 91] | statistically significant inhibition of neutrophilia
12 | COc1ccc(NC(=O)c2ccc(C)c(-c3nc(NCCN(C)C)nc4c3CNC(=O)N4c3c(F)cccc3F)c2)cn1 [Example 140, 3-(8-(2,6-difluorophenyl)-2-{[2-(dimethylamino)ethyl]amino}-7-oxo-5,6,7,8-tetrahydropyrimido[4,5-d]pyrimidin-4-yl)-4-methyl-N-[6-(methyloxy)-3-pyridinyl]benzamide] | statistically significant inhibition of neutrophilia
13 | Cc1ccc(C(=O)Nc2nccs2)cc1-c1nc(NCCCN(C)C)nc2c1CNC(=O)N2c1c(F)cccc1F [Example 119, 3-(8-(2,6-difluorophenyl)-2-{[3-(dimethylamino)propyl]amino}-7-oxo-5,6,7,8-tetrahydropyrimido[4,5-d]pyrimidin-4-yl)-4-methyl-N-1,3-thiazol-2-ylbenzamide] | statistically significant inhibition of neutrophilia
14 | Cc1ccc(C(=O)NC(C)C)cc1-c1nc(NC2CCN(Cc3ccccc3)CC2)nc2c1CNC(=O)N2c1c(F)cccc1F [Example 200, 3-(8-(2,6-difluorophenyl)-7-oxo-2-{[1-(phenylmethyl)-4-piperidinyl]amino}-5,6,718-tetrahydropyrimido[4,5-d]pyrimidin-4-yl)-4-methyl-N-(1-methylethyl)benzamide] | statistically significant inhibition of neutrophilia
15 | Cc1ccc(C(=O)Nc2ccc(F)cc2)cc1-c1nc(NC2CCN(C)CC2)nc2c1CNC(=O)N2c1c(F)cccc1F [Example 39, 3-{8-(2,6-difluorophenyl)-2-[(1-methyl-4-piperidinyl)amino]-7-oxo-5,6,7,8-tetrahydropyrimido[4,5-d]pyrimidin-4-yl}-N-(4-fluorophenyl)-4-methylbenzamide] | statistically nonsignificant inhibition of neutrophilia
16 | Cc1ccc(C(=O)Nc2ccccc2)cc1-c1nc(NCCN(C)C)nc2c1CNC(=O)N2c1c(F)cccc1F [Example 137, 3-(8-(2,6-difluorophenyl)-2-{[2-(dimethylamino)ethyl]amino}-7-oxo-5,6,7,8-tetrahydropyrimido[4,5-d]pyrimidin-4-yl)-4-methyl-N-phenylbenzamide] | statistically significant inhibition of neutrophilia
17 | Cc1ccc(C(=O)NC(C)C)cc1-c1nc(N2CCC(N3CCCCC3)CC2)nc2c1CNC(=O)N2c1c(F)cccc1F [Example 57, 3-[2-(1,4′-bipiperidin-1′-yl)-8-(2,6-difluorophenyl)-7-oxo-5,6,7,8-tetrahydropyrimido[4,5-d]pyrimidin-4-yl]-4-methyl-N-(1-methylethyl)benzamide] | statistically nonsignificant inhibition of neutrophilia
18 | Cc1ccc(C(=O)NC(C)C)cc1-c1nc(N2CCC(N3CCCC3)CC2)nc2c1CNC(=O)N2c1c(F)cccc1F [Example 60, 3-{8-(2,6-difluorophenyl)-7-oxo-2-[4-(1-pyrrolidinyl)-1-piperidinyl]-5,6,7,8-tetrahydropyrimido[4,5-d]pyrimidin-4-yl}-4-methyl-N-(1-methylethyl)benzamide] | statistically nonsignificant inhibition of neutrophilia; also recorded: inactive
19 | CSc1ccc(NC(=O)c2ccc(C)c(-c3nc(NCCN(C)C)nc4c3CNC(=O)N4c3c(F)cccc3F)c2)cc1 [Example 127, 3-(8-(2,6-difluorophenyl)-2-{[2-(dimethylamino)ethyl]amino}-7-oxo-5,6,7,8-tetrahydropyrimido[4,5-d]pyrimidin-4-yl)-4-methyl-N-[4-(methylthio)-phenyl]benzamide] | statistically significant inhibition of neutrophilia
20 | CN(C)CCNc1nc(-c2cccc(C(=O)Nc3ccc(F)cc3)c2)c2c(n1)N(c1c(F)cccc1F)C(=O)NC2 [Example 93] | statistically nonsignificant inhibition of neutrophilia
21 | CN(C)CCNc1nc(-c2cccc(C(=O)Nc3nccs3)c2)c2c(n1)N(c1c(F)cccc1F)C(=O)NC2 [Example 92, 3-(8-(2,6-difluorophenyl)-2-{[2-(dimethylamino)ethyl]amino}-7-oxo-5,6,7,8-tetrahydropyrimido[4,5-d]pyrimidin-4-yl)-N-1,3-thiazol-2-ylbenzamide] | statistically significant inhibition of neutrophilia
22 | Cc1ccc(C(=O)NC(C)C)cc1-c1nc(N2CCC(N3CCC(C)CC3)CC2)nc2c1CNC(=O)N2c1c(F)cccc1F [Example 70, 3-[8-(2,6-difluorophenyl)-2-(4-methyl-1,4′-bipiperidin-1′-yl)-7-oxo-5,6,7,8-tetrahydropyrimido[4,5-d]pyrimidin-4-yl]-4-methyl-N-(1-methylethyl)benzamide] | statistically significant inhibition of neutrophilia
